Values joined by “and” are separate entries in the source; they are usually repeats but may differ in a detail not shown here. Identical values can stand only once. Like-named read-outs stand apart in the source and are kept apart here. Marks after values point to notes of the source that are not given here.
Key:
[1] = type: in vivo, human; settings: for M:P AUCinf ratio, relative bioavailability point estimate / M:P AUCt ratio, relative bioavailability point estimate: Day 11 vs. day 1; for Cmax, geometric mean (mean, %CV): N = 20; for change in terminal elimination half-life / change in Tmax: day 11 compared to day 1, all subjects
[2] = test system: P‐gp; settings: following elagolix 200 mg b.i.d. regimen; cited from earlier work
[3] = test system: CYP2C19; assay: Clinical classification of elagolix as CYP2C19 inhibitor from omeprazole DDI; type: in vivo, human; settings: elagolix 300 mg b.i.d., FDA criteria for clinical CYP enzyme inhibitors
[4] = Elagolix plasma concentrations on day 11 of this study; type: in vivo; settings: female, human, oral, 300 mg
[5] = test system: P‐gp; settings: in vitro; cited from earlier work
[6] = test system: CYP2C19; settings: in vitro; cited from earlier work
[7] = test system: CYP3A; settings: in vitro; cited from earlier work
[8] = test system: CYP3A4; settings: cited from earlier work
[9] = rabbits, coadministration with verapamil; cited from earlier work
[10] = cited from earlier work
[11] = no reference given; cited from earlier work
[12] = low aqueous solubility and high permeability; cited from earlier work
[13] = Day 1, omeprazole 40 mg (reference)
[14] = Day 11, elagolix 300 mg b.i.d. + omeprazole 40 mg (test)
[15] = Study day 1, omeprazole 40 mg alone
[16] = Study day 11, omeprazole 40 mg + elagolix 300 mg b.i.d.
[17] = day 11 (elagolix 300 mg b.i.d.) vs day 1, all subjects

For `COc1ccc2nc([S+]([O-])Cc3ncc(CO)c(OC)c3C)[nH]c2c1` (stereo not shown) [5‐hydroxyomeprazole], the “M:P AUCinf ratio, central value” [1, 13] was 0.458, the “M:P AUCt ratio, central value” [1, 13] was 0.471 and the “M:P AUCinf ratio, central value” [1, 14] was 0.198. The “M:P AUCt ratio, central value” [1, 14] was 0.194, the “M:P AUCinf ratio, relative bioavailability point estimate” value [1] was 0.432 and the “M:P AUCt ratio, relative bioavailability point estimate” value [1] was 0.412. For the same compound, the “AUCinf, geometric mean (mean, %CV)” value [1, 15] was 883 (932, 33) ng•h/ml, the “AUCt, geometric mean (mean, %CV)” value [1, 15] was 857 (911, 35) ng•h/ml and the “RAUCinf, metabolite-to-omeprazole AUCinf ratio, median (minimum–maximum)” value [1, 15] was 0.61 (0.048–2.3) ^c. For the same compound, the “RAUCt, metabolite-to-omeprazole AUCt ratio, median (minimum–maximum)” value [1, 15] was 0.65 (0.044–2.1), the “Tmax, median (minimum–maximum)” value [1, 15] was 2.0 (2.0–10) h and the “t1/2, harmonic mean (pseudo-standard deviation)” value [1, 15] was 1.88 (0.794) h. The “Cmax, geometric mean (mean, %CV)” value [1, 15] was 195 (238, 61) ng/ml, the “AUCinf, geometric mean (mean, %CV)” value [1, 16] was 664 (679, 21) ng•h/ml and the “AUCt, geometric mean (mean, %CV)” value [1, 16] was 643 (659, 22) ng•h/ml. For the same compound, the “RAUCinf, metabolite-to-omeprazole AUCinf ratio, median (minimum–maximum)” value [1, 16] was 0.20 (0.071–0.90), the “RAUCt, metabolite-to-omeprazole AUCt ratio, median (minimum–maximum)” value [1, 16] was 0.20 (0.071–0.84) and the “Tmax, median (minimum–maximum)” value [1, 16] was 3.0 (1.0–8.0) h. The “t1/2, harmonic mean (pseudo-standard deviation)” value [1, 16] was 1.97 (0.901) h, the “Cmax, geometric mean (mean, %CV)” value [1, 16] was 134 (142, 34) ng/ml and the “change in terminal elimination half-life” value [1] was “unchanged”. The “decrease in AUCinf” value ([1]; day 11 vs day 1, EM subjects) was 23%, the “decrease in AUCinf” value ([1]; day 11 vs day 1, IM subjects) was 30% and the “decrease in AUCinf (exposure)” value ([1]; day 11 vs day 1, PM subjects) was 20%. For the same compound, the “decrease in AUCinf (exposure)” value ([1]; day 11 vs day 1, all subjects) was 25%, the “decrease in Cmax” value ([1]; day 11 vs day 1, all subjects) was “approximately 30%” and the “decrease in metabolite-to-parent (M:P) AUC ratio” value ([1]; day 11 vs day 1, all subjects) was ~ 60%. The “increase in Tmax” value ([1]; day 11 vs day 1, all subjects) was 1 h.

In the case of `C[C@H]1O[C@@H](O[C@H]2[C@@H](O)C[C@H](O[C@H]3[C@@H](O)C[C@H](O[C@H]4CC[C@@]5(C)[C@H](CC[C@@H]6[C@@H]5C[C@@H](O)[C@]5(C)[C@@H](C7=CC(=O)OC7)CC[C@]65O)C4)O[C@@H]3C)O[C@@H]2C)C[C@H](O)[C@@H]1O` [digoxin], the “increase in AUC” value [2] is given as 26% and the “increase in Cmax” value [2] is given as 71%.

For `COc1cccc(-c2c(C)n(Cc3c(F)cccc3C(F)(F)F)c(=O)n(C[C@H](NCCCC(=O)O)c3ccccc3)c2=O)c1F` [elagolix], the “clinical CYP2C19 inhibitor classification” value [3] is given as “weak inhibitor”, the Cmax [4] is given as 1410 ng/mL and the IC50 [5] is given as 54 µM. For the same compound, the Ki [6] was 34 µM, the kinact [6] was 0.029 min⁻¹ and the maximum induction [7] was 20 fold. The CYP3A inducer classification ([8]; from midazolam DDI) was “weak to moderate inducer”.

For `Cc1ncc2n1-c1ccc(Cl)cc1C(c1ccccc1F)=NC2` [midazolam], the “reduction in AUC” value ([8]; with elagolix 150 mg q.d.) is given as 35% and the “reduction in AUC” value ([8]; with elagolix 300 mg b.i.d.) is given as 54%.

With `COc1ccc2nc(S(=O)(=O)Cc3ncc(C)c(OC)c3C)[nH]c2c1` [omeprazole sulfone] the “M:P AUCinf ratio, central value” [1, 13] was 0.825, the “M:P AUCt ratio, central value” [1, 13] was 0.679 and the “M:P AUCinf ratio, central value” [1, 14] was 1.028. For the same compound, the “M:P AUCt ratio, central value” [1, 14] was 1.017, the “M:P AUCinf ratio, relative bioavailability point estimate” value [1] was 1.246 and the “M:P AUCt ratio, relative bioavailability point estimate” value [1] was 1.497. For the same compound, the “change in Cmax after elagolix dosing” value ([1]; PM subjects) was “unchanged”, the “RAUCinf, metabolite-to-omeprazole AUCinf ratio, median (minimum–maximum)” value [1, 15] was 0.85 (0.52–1.1) ^e and the “RAUCt, metabolite-to-omeprazole AUCt ratio, median (minimum–maximum)” value [1, 15] was 0.76 (0.13–1.1). For the same compound, the “RAUCinf, metabolite-to-omeprazole AUCinf ratio, median (minimum–maximum)” value [1, 16] was 0.99 (0.71–1.5), the “RAUCt, metabolite-to-omeprazole AUCt ratio, median (minimum–maximum)” value [1, 16] was 0.97 (0.67–1.5) and the “increase in AUCinf (exposure)” value [1, 17] was 2.5 fold. The “increase in Cmax” value [1, 17] was 2.7 fold, the “change in Tmax” value [1] was “relatively unchanged” and the “change in terminal elimination half-life” value [1] was “relatively unchanged”. For the same compound, the increase in exposures ([1]; day 11 vs day 1, EM and IM subjects) was ~ 3 fold, the “increase in AUCinf” value ([1]; day 11 vs day 1, EM subjects) was 2.7 fold and the “increase in AUCinf” value ([1]; day 11 vs day 1, IM subjects) was 3 fold. For the same compound, the “increase in metabolite-to-parent (M:P) AUC ratio” value ([1]; day 11 vs day 1, all subjects) was 25% and the “AUCinf on day 11 lower compared to day 1” value ([1]; one PM subject with AUCinf on both days) was 40%.

For `COc1ccc2[nH]c([S+]([O-])Cc3ncc(C)c(OC)c3C)nc2c1` (stereo not shown) [omeprazole, reference compound], the “increase in AUCinf (exposure)” value [1, 17] was 1.8 fold, the “increase in Cmax” value [1, 17] was 1.9 fold and the “change in Tmax” value [1] was “unchanged”. For the same compound, the “change in terminal elimination half-life” value [1] was “unchanged”, the “increase in AUCinf” value ([1]; day 11 vs day 1, EM subjects) was 2 fold and the “increase in AUCinf” value ([1]; day 11 vs day 1, IM subjects) was 2.6 fold. The “decrease in AUCinf (exposure)” value ([1]; day 11 vs day 1, PM subjects) was 40%, the “increase in Cmax” value ([1]; day 11 vs day 1, PM subjects) was 23% and the Tmax ([1]; human, plasma, oral, 40 mg, Tmax, individual subjects, three PM subjects, day 1) was 8 h. The “Tmax, individual subjects” value ([1]; three PM subjects, day 1) was 10 h and 2 h, the “Tmax, individual subjects” value ([1]; three PM subjects, day 11) was 2 h (2×) and 1 h and the “increase in AUC” value [9] was “more than 2 fold”. The “increase in Cmax” value [9] was “more than 2 fold”, the “model-estimated absorption rate constant, higher vs homozygous wild-type” value ([10]; subjects heterozygous for ABCB1 mutant alleles) was 2 fold and the “model-estimated absorption rate constant, higher vs homozygous wild-type” value ([10]; subjects homozygous for ABCB1 mutant alleles) was 7 fold. For the same compound, the “estimated fraction absorbed and escaping intestinal first pass (fa*fg)” value [11] was “approximately 0.80” and the “Biopharmaceutics Classification System (BCS) class” value [12] was “Class 2”.

From paper PMC9099122 (Clinical and Translational Science, 2022)
